Common to all, as to assay type: in vivo
One assay relates to Amaranthus retroflexus. Put plainly: Post-emergence application of herbicide and safener by the tank mix method, herbicidal action on weed. Conditions: four weeks. An excerpt: (§1) Seeds of various crop plants and weed species were sown in sandy loam soil in round plastic pots of a diameter of 13 cm and covered with a layer of sandy loam of a thickness of about 1 cm. The pots were placed in a greenhouse under favorable growth conditions for a period of about two to three weeks, allowing the plants to reach a growth stage of 2 to 4 leaves. The herbicides in the form of liquid (for example emulsion concentrates) or dry (for example water-dispersible powders) formulations were mixed with a standard additive (based on rapeseed oil methyl ester), diluted with deionized water to the required concentrations and applied to the green parts of the plants and the uncovered part of the soil surface with a spray bar using a water application rate of 300 liters per hectare. In the experiment shown below, safener and the herbicide foramsulfuron were in each case used as 20 percent strength water-dispersible powder (results see table 1.2.1). The pots were placed in a greenhouse under favorable growth conditions. Visual scoring of the herbicidal action was carried out four weeks after the herbicide application. Evaluation was carried out on a percentage basis by comparison with untreated control plants (0%=no noticeable effect compared with the untreated plant, 100%=treated plant dies).

In assay [1] the test system is Setaria viridis. The description is as above. Conditions: four weeks.
Description: as §1

The subject of assay [2] is Zea mays (corn), cv. 'Lorenzo'. Nature of the assay: Pre-emergence application of herbicide and safener by the tank mix method, crop damage. Conditions: for Safener action as % damage reduction in crop plants: ZEAMA, safener 250 g a.i./ha + herbicide H1 100 g a.i./ha. On the procedure:
(§2) Seeds of various crop plants and weed species were sown in sandy loam soil in round plastic pots of a diameter of 13 cm and covered with a layer of sandy loam of a thickness of about 1 cm. Herbicides and safeners in the form of liquid (for example emulsion concentrates) or dry (for example water-dispersible powders) formulations were diluted with deionized water to the required concentration and applied to the surface of the soil with a spray bar using a water application rate of 300 liters per hectare. In the experiment shown below, the safeners were used as 20 percent strength water-dispersible powders and the herbicide isoxaflutole was used as an aqueous suspension concentrate (see table 1.1.1). The pots were placed in a greenhouse under favorable growth conditions. Visual scoring of the herbicidal action was carried out four weeks after the herbicide application. Evaluation was carried out on a percentage basis by comparison with untreated control plants (0%=no noticeable effect compared with the untreated plant, 100%=treated plant dies).

Assay [3] concerns Zea mays (corn), cv. 'Lorenzo'. Put plainly: Post-emergence application of herbicide and safener by the tank mix method, crop damage. Conditions: for Safener action as % damage reduction in crop plants: ZEAMA, safener 250 g a.i./ha + herbicide H2 40 g a.i./ha; for % damage in ZEAMA: four weeks.
Description: as §1

Assay [4] relates to Glycine max (soybean), cv. 'Lambert'. Nature of the assay: Pre-emergence application of herbicide after seed dressing with safener, crop damage. Conditions: for Safener action as % damage reduction in crop plants: GLXMA; for % damage in GLXMA: four weeks. On the procedure: (§3) The number of crop plant seeds required for each application rate of safener was calculated. Sufficient seeds were weighed out into glass bottles having a screw-on lid. The volume of the glass bottles was approximately twice that of the seeds weighed out. The safeners were formulated as 20 percent strength water-dispersible powders. These formulations were weighed out to give the required application rates (g of a.i./kg of seed). The samples were added to the seed in the glass containers, and sufficient water to form a suitable seed dressing was then added. The glass bottles were closed and then mounted in an overhead shaker (which turns the bottles at moderate speed for a period of up to one hour) so that the seeds were uniformly covered with the seed dressing. The bottles were opened and the seed was ready for use in pre-emergence or post-emergence experiments, as described below. The seeds which had been treated with safener and untreated seeds as controls were sown in sandy loam soil in round plastic pots of a diameter of 13 cm and covered with a layer of sandy loam of a thickness of about 1 cm. The herbicides in the form of liquid (for example emulsion concentrates) or dry (for example water-dispersible powders) formulations were diluted with deionized water to the required concentrations and applied to the surface of the soil with a spray bar using a water application rate of 300 liters per hectare. In the two experiments shown below (results see tables 2.2.1 and 2.2.2), the herbicide isoxaflutole was used as an aqueous suspension concentrate. The pots were placed in a greenhouse under favorable growth conditions. Visual scoring of the herbicidal action was carried out four weeks after the herbicide application. Evaluation was carried out on a percentage basis by comparison with untreated control plants (0%=no noticeable effect compared with the untreated plant, […]).

Assay [5] relates to Zea mays (corn), cv. 'Lorenzo'. The description is as above. Conditions: for Safener action as % damage reduction in crop plants: ZEAMA; for % damage in ZEAMA: four weeks. On the procedure:
as §3

Assay [6] concerns Zea mays (corn), cv. 'Lorenzo'. Put plainly: Post-emergence application of herbicide after seed dressing with safener, crop damage. Conditions: for Safener action as % damage reduction in crop plants: ZEAMA; for % damage in ZEAMA: four weeks. On the procedure:
The number of crop plant seeds required for each application rate of safener was calculated. Sufficient seeds were weighed out into glass bottles having a screw-on lid. The volume of the glass bottles was approximately twice that of the seeds weighed out. The safeners were formulated as 20 percent strength water-dispersible powders. These formulations were weighed out to give the required application rates (g of a.i./kg of seed). The samples were added to the seed in the glass containers, and sufficient water to form a suitable seed dressing was then added. The glass bottles were closed and then mounted in an overhead shaker (which turns the bottles at moderate speed for a period of up to one hour) so that the seeds were uniformly covered with the seed dressing. The bottles were opened and the seed was ready for use in pre-emergence or post-emergence experiments, as described below. The seeds treated with safener and untreated seeds were sown in sandy loam soil in round plastic pots of a diameter of 13 cm and covered with a layer of sandy loam of a thickness of about 1 cm. The pots were placed in a greenhouse under favorable growth conditions for a period of about two to three weeks, allowing the plants to reach a growth stage of 2 to 4 leaves. The herbicides in the form of liquid (for example emulsion concentrates) or dry (for example water-dispersible powders) formulations were mixed with a standard additive (based on rapeseed oil methyl ester), diluted with deionized water to the required concentrations and applied to the green parts of the plants and the uncovered part of the soil surface with a spray bar using a water application rate of 300 liters per hectare. In the experiment shown below, the herbicide foramsulfuron was used as 20 percent strength water-dispersible powder (results see table 2.3.1). The pots were placed in a greenhouse under favorable growth conditions. Visual scoring of the herbicidal action was carried out four weeks after the herbicide application. Evaluation was carried out on a percentage base by comparison with untreated control plants (0%=no noticeable effect compared with the untreated plant, 100%=treated plant dies).

A further assay has as its system Chenopodium album. Put plainly: Pre-emergence application of herbicide and safener by the tank mix method, herbicidal action on weed. Conditions: four weeks. On the procedure: as §2
Assay [7] deals with Setaria viridis. The description is as above. Conditions: four weeks. On the procedure: as §2
The mark [8] stands for this setting: safener 250 g a.i./ha + herbicide H2 40 g a.i./ha, post-emergence tank mix.
Where [9] appears, read: safener 250 g a.i./ha + herbicide H1 (isoxaflutole) 100 g a.i./ha, pre-emergence tank mix, visual scoring four weeks after application.
Where [10] appears, read: safener 250 g a.i./ha + herbicide H2 (foramsulfuron) 40 g a.i./ha, post-emergence tank mix.
Where [11] appears, read: seed dressing with safener 1 g a.i./kg of seed, herbicide H1 100 g a.i./ha pre-emergence.
Where [12] appears, read: seed dressing with safener 1 g a.i./kg of seed, then herbicide H1 100 g a.i./ha pre-emergence.
[13] abbreviates: seed dressing with safener 1 g a.i./kg of seed, herbicide H2 40 g a.i./ha post-emergence.
Where [14] appears, read: seed dressing with safener 1 g a.i./kg of seed, then herbicide H2 40 g a.i./ha post-emergence.
Setting [15] is: safener 250 g a.i./ha + herbicide H1 100 g a.i./ha, pre-emergence tank mix.
Setting [16] is: herbicide H1 100 g a.i./ha pre-emergence, untreated seeds (no safener).
[17] abbreviates: herbicide H1 100 g a.i./ha alone, no safener, pre-emergence.
Where [18] appears, read: herbicide H2 40 g a.i./ha alone, no safener, post-emergence.

Take `O=C(O)c1ccc(O)cc1O` [Comp. 588, 4-hydroxysalicylic acid]: in the assay with Amaranthus retroflexus (setting [8]), the “Herbicidal action as % damage in AMARE” value is reported as 95%. In the assay on Setaria viridis [1] (setting [8]), the “Herbicidal action as % damage in SETVI” value worked out at 95%. Besides, the “Safener action as % damage reduction in crop plants” value in assay [2] (pre-emergence tank mix) was determined as 61%; in assay [3] (post-emergence tank mix) it was 74%; in assay [4] (setting [11]) it was 69%; in assay [5] (setting [11]), 59%; in assay [6] (setting [13]), 73%. Further, the “% damage in ZEAMA” value in assay [2] (setting [9]) is listed as 9%; in [3] (setting [10]) it was 10%; in assay [5] (setting [12]) it was 12%; in [6] (setting [14]), 10%. For the same compound, the “% damage in GLXMA” value in assay [4] (setting [12]) is 27%. Also, the “Herbicidal action in CHEAL (in %)” value in the assay with Chenopodium album (setting [15]) stood at 92%. For the same compound, the “Herbicidal action in SETVI (in %)” value in the assay with Setaria viridis [7] (setting [15]) worked out at 97%.
Consider `CS(=O)(=O)c1cc(C(F)(F)F)ccc1C(=O)c1cnoc1C1CC1` [Herbicide H1, isoxaflutole, reference compound], for which the “% damage in ZEAMA” value in assay [2] (herbicide H1 100 g a.i./ha alone, no safener, pre-emergence, four weeks) was determined as 23%; in assay [5] (setting [16]), 29%. In addition, the “% damage in GLXMA” value in assay [4] (setting [16]) turned out to be 87%. Besides, in the assay with Chenopodium album (setting [17]), the “Herbicidal action in CHEAL (in %)” value came out at 90%. The “Herbicidal action in SETVI (in %)” value with Setaria viridis [7] (setting [17]) is 92%.
For `COc1cc(OC)nc(NC(=O)NS(=O)(=O)c2cc(NC=O)ccc2C(=O)N(C)C)n1` [Herbicide H2, foramsulfuron, reference compound], the “Herbicidal action as % damage in AMARE” value with Amaranthus retroflexus (setting [18]) stood at 91%. For the same compound, the “Herbicidal action as % damage in SETVI” value with Setaria viridis [1] (setting [18]) worked out at 93%. The “% damage in ZEAMA” value in assay [3] (setting [18]) is given as 39%; in assay [6] (herbicide H2 40 g a.i./ha post-emergence, untreated seeds (no safener)) it was 37%.
Take `O=C(O)c1ccc(F)cc1O` [Comp. 253, 4-fluorosalicylic acid]: the “Herbicidal action as % damage in AMARE” value in the assay with Amaranthus retroflexus (setting [8]) was found to be 91%. Moreover, the “Herbicidal action as % damage in SETVI” value in the assay with Setaria viridis [1] (setting [8]) is 93%. Besides, the “Safener action as % damage reduction in crop plants” value is listed as 83% in assay [2] (pre-emergence tank mix); 82% in assay [3] (post-emergence tank mix); 63% in assay [4] (setting [11]); 69% in [5] (setting [11]); 78% in assay [6] (setting [13]). Moreover, the “% damage in ZEAMA” value is on record as 4% in assay [2] (setting [9]), 7% in assay [3] (setting [10]), 9% in [5] (setting [12]) and 8% in [6] (setting [14]). Moreover, the “% damage in GLXMA” value in assay [4] (setting [12]) is given as 32%. In addition, the “Herbicidal action in CHEAL (in %)” value with Chenopodium album (setting [15]) is reported as 90%. Moreover, the “Herbicidal action in SETVI (in %)” value in the assay with Setaria viridis [7] (setting [15]) is listed as 93%.

(Values after patent US8138118B2, “Use of hydroxyaromatics as safeners” (Bayer CropScience AG, priority 2003, dated 2012).)
